How the values were obtained:
[1] = Clinical study: plasma concentrations after OTF administration; conditions: for plasma level following OTF compared to intravenous administration of 20 mg (S)-ketamine / Cmax: human; for plasma level following OTF compared to intravenous administration of 20 mg (S)-ketamine: in vivo; for Cmax: plasma, Cmax plasma concentration
[2] = Clinical study: pharmacokinetic model (NONMEM), Tmax, AUC, oral bioavailability
[3] = Clinical study: safety, compatibility, adverse events
[4] = averaged; cited from earlier work
[5] = human, plasma, other: sublingual or buccal, 50 mg
[6] = human, plasma, other: sublingual or buccal, 100 mg
[7] = All data, 50 mg OTF based on formulation 15
[8] = All data, 2 × 50 mg OTF based on formulation 15
[9] = Buccally, 50 mg OTF based on formulation 15
[10] = Buccally, 2 × 50 mg OTF based on formulation 15
[11] = Sublingually, 50 mg OTF based on formulation 15
[12] = Sublingually, 2 × 50 mg OTF based on formulation 15
[13] = 50 mg (S)-Ketamine OTF, calculated using PK model
[14] = 100 mg (S)-Ketamine OTF, calculated using PK model

CNC1(c2ccccc2Cl)CCCCC1=O (racemic) [(S)-ketamine, (S)-(±)-2-(2-chlorophenyl)-2-(methylamino)cyclohexan-1-one]
plasma level following OTF compared to intravenous administration of 20 mg (S)-ketamine [1]: higher for intravenous administration | Cmax ([1]; 50 mg, Buccally, 50 mg OTF based on formulation 15): 117 ng/mL | Cmax ([1]; 50 mg, Sublingually, 50 mg OTF based on formulation 15): 95 ng/mL | Cmax ([1]; 100 mg, Buccally, 2 × 50 mg OTF based on formulation 15): 158 ng/mL | Cmax ([1]; 100 mg, Sublingually, 2 × 50 mg OTF based on formulation 15): 138 ng/mL | Cmax ([1]; other: sublingual or buccal (all data), 50 mg, All data, 50 mg OTF based on formulation 15): 101 ng/mL | Cmax ([1]; other: sublingual or buccal (all data), 100 mg, All data, 2 × 50 mg OTF based on formulation 15): 143 ng/mL | AUC(0-t) [2, 5]: 139 ng·h/mL | Tmax [2, 5]: 18.8 min | AUC(0-t) [2, 6]: 222 ng·h/mL | Tmax [2, 6]: 19.1 min | Dizziness (prevalence of events) ([3]; 20 mg (S)-ketamine IV): 4 | Drowsiness (prevalence of events) ([3]; 20 mg (S)-ketamine IV): 3 | Dry eyes (prevalence of events) ([3]; 20 mg (S)-ketamine IV): 1 | Headache (prevalence of events) ([3]; 20 mg (S)-ketamine IV): 3 | High blood pressure (SBP >180 mm Hg) (prevalence of events) ([3]; 20 mg (S)-ketamine IV): 2 | Nausea (prevalence of events) ([3]; 20 mg (S)-ketamine IV): 2 | Sweating (prevalence of events) ([3]; 20 mg (S)-ketamine IV): 1 | Total side effects (prevalence of events) ([3]; 20 mg (S)-ketamine IV): 17 | Whistling noise in the ear (prevalence of events) ([3]; 20 mg (S)-ketamine IV): 1 | Blurred vision (prevalence of events) ([3]; 50 mg (S)-ketamine OTF): 1 | Bradykinesia (prevalence of events) ([3]; 50 mg (S)-ketamine OTF): 1 | Dizziness (prevalence of events) ([3]; 50 mg (S)-ketamine OTF): 1 | Feeling of drunkenness (prevalence of events) ([3]; 50 mg (S)-ketamine OTF): 2 | Headache (prevalence of events) ([3]; 50 mg (S)-ketamine OTF): 1 | Nausea (prevalence of events) ([3]; 50 mg (S)-ketamine OTF): 1 | Total side effects (prevalence of events) ([3]; 50 mg (S)-ketamine OTF): 7 | Bradykinesia (prevalence of events) ([3]; 100 mg (S)-ketamine OTF): 1 | Dizziness (prevalence of events) ([3]; 100 mg (S)-ketamine OTF): 3 | Headache (prevalence of events) ([3]; 100 mg (S)-ketamine OTF): 2 | Nausea (prevalence of events) ([3]; 100 mg (S)-ketamine OTF): 1 | Numbness of the tongue (prevalence of events) ([3]; 100 mg (S)-ketamine OTF): 2 | Total side effects (prevalence of events) ([3]; 100 mg (S)-ketamine OTF): 9 | adverse events in total ([3]; whole study, OTF and IV): 33 | serious adverse events ([3]; whole study, OTF and IV): None of these was a serious adverse event | test subjects reporting at least one adverse event ([3]; whole study, OTF and IV): 18 | lethal dose [4]: 4.2 g/70 kg

N[C@]1(c2ccccc2Cl)CCCCC1=O [(S)-Norketamine]
Cmax plasma concentration [1, 7]: 254 ng/mL | Cmax plasma concentration [1, 8]: 330 ng/mL | Cmax plasma concentration [1, 9]: 242 ng/mL | Cmax plasma concentration [1, 10]: 450 ng/mL | Cmax plasma concentration [1, 11]: 258 ng/mL | Cmax plasma concentration [1, 12]: 323 ng/mL | plasma level following OTF compared to intravenous administration of 20 mg (S)-ketamine [1]: higher following administration of an OTF | Tmax [2, 13]: 61 (53-68) min | Tmax [2, 14]: 78 (66-91) min

N[C@]1(c2ccccc2Cl)CCC[C@H](O)C1=O [(S)-Hydroxynorketamine]
Cmax plasma concentration [1, 7]: 94 ng/mL | Cmax plasma concentration [1, 8]: 171 ng/mL | Cmax plasma concentration [1, 9]: 81 ng/mL | Cmax plasma concentration [1, 10]: 165 ng/mL | Cmax plasma concentration [1, 11]: 98 ng/mL | Cmax plasma concentration [1, 12]: 173 ng/mL | plasma level following OTF compared to intravenous administration of 20 mg (S)-ketamine [1]: higher following administration of an OTF | Tmax [2, 13]: 81 (69-92) min | Tmax [2, 14]: 109 (89-130) min
